Article PMC3017236 (Clinical cancer research : an official journal of the …, 2010)
Entries after “also recorded” stand apart in the source; their conditions may differ. Like-named read-outs stand apart in the source and are kept apart here.

Legend:
human MRP4 = target: T1, human MRP4 (Homo sapiens, UniProt O15439); test: Intracellular accumulation in Saos2-MRP4 cells vs Saos2-pcDNA3.1; conditions: Saos2-MRP4 vs Saos2-pcDNA3.1, 0.5 μg/mL, 37°C
T1 sequence (O15439 1-1325): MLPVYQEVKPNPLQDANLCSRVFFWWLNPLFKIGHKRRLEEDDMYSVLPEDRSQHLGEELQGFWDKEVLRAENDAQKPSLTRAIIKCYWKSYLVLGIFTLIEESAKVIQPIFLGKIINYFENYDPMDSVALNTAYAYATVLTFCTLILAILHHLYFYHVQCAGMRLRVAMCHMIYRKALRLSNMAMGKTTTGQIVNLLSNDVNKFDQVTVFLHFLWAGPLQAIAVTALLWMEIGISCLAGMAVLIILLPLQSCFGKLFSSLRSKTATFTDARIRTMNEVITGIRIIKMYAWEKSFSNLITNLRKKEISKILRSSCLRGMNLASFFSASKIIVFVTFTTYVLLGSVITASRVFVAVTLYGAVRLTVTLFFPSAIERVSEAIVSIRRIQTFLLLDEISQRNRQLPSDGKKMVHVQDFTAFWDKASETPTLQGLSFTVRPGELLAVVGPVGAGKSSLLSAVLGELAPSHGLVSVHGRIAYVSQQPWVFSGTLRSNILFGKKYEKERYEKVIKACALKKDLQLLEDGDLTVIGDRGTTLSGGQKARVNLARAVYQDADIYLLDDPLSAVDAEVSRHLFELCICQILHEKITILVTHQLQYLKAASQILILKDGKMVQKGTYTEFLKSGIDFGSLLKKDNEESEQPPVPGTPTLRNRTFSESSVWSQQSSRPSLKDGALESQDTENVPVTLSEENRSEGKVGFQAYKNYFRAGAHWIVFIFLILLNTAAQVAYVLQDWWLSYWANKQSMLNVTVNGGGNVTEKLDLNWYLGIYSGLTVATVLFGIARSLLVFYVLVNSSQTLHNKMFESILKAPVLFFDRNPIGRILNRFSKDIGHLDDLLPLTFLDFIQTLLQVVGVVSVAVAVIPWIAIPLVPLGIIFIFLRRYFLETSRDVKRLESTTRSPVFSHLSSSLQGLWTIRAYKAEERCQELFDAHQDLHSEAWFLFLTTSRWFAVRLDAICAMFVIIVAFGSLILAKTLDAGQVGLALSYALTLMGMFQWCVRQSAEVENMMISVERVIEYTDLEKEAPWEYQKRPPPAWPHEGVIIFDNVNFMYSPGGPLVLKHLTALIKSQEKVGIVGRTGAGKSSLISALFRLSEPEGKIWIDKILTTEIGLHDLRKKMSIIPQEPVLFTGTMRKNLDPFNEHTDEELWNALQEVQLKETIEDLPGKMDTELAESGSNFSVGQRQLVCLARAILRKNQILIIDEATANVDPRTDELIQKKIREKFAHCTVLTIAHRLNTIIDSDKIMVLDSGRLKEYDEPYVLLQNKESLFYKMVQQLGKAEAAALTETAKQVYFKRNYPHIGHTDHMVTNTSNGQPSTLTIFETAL

[1] = humans; cited from earlier work
[2] = target: T2, organic anion transporter-3 (OAT3) (Homo sapiens, UniProt Q8TCC7); test: Uptake in HEK-293 cells transfected with OAT3 vs empty vector; conditions: HEK-293/OAT3, 5 minutes incubation, 0.5 μg/mL
T2 sequence (Q8TCC7 1-542): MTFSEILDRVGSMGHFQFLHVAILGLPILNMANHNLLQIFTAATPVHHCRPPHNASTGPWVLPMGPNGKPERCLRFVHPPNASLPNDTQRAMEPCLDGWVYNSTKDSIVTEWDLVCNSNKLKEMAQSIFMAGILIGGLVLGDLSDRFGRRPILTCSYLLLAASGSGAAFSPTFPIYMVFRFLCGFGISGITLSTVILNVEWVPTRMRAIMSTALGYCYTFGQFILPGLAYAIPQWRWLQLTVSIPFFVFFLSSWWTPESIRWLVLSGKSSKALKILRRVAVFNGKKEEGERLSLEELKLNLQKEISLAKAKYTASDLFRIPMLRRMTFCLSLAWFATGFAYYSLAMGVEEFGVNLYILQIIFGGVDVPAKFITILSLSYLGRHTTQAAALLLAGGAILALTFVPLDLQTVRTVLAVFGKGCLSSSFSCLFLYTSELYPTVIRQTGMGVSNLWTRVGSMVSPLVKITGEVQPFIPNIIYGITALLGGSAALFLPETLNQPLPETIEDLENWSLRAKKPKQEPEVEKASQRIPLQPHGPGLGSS

human BCRP = target: T3, human BCRP (Homo sapiens, UniProt Q9UNQ0); test: Intracellular accumulation in Saos2-BCRP cells vs Saos2-pcDNA3.1; conditions: for Effect of elacridar on intracellular accumulation: Saos2-BCRP cells, pre-incubation 30 minutes with elacridar (4 μM); for Intracellular accumulation vs control cells: Saos2-BCRP vs Saos2-pcDNA3.1, 0.5 μg/mL, 37°C
T3 sequence (Q9UNQ0 1-655): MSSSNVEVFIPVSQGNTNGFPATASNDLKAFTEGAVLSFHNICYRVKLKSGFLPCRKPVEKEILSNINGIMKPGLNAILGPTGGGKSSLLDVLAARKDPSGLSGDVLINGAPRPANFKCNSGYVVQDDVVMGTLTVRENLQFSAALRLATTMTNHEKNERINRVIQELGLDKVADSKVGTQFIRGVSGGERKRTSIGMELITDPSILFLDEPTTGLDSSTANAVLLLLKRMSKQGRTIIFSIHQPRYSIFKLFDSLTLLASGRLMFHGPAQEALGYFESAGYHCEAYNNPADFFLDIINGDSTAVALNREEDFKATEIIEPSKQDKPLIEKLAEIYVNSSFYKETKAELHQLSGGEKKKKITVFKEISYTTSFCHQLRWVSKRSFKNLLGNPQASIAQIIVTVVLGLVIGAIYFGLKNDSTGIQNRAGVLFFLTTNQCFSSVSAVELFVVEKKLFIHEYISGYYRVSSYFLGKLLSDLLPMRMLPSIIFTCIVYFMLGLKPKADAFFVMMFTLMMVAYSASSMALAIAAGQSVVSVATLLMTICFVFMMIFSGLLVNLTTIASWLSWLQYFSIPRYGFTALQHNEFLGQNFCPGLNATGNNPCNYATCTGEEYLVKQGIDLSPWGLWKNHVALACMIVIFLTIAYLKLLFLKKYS

| Compound | Intracellular accumulation vs control cells (human MRP4) | Renal clearance component as share of overall elimination [1] | Differences in unbound fraction between strains (plasma from each mouse strain, equilibrium dialysis) | Uptake vs empty vector HEK-293 cells [2] | Uptake vs empty vector HEK-293 cells ([2]; listed as Erlotinib) | Effect of elacridar on intracellular accumulation (human BCRP) | Intracellular accumulation vs control cells (human BCRP) | Systemic exposure relative to that of erlotinib [1] | Differences in unbound fraction between strains (mouse, plasma) | Unbound fraction (fu) (mouse, plasma) |
| --- | --- | --- | --- | --- | --- | --- | --- | --- | --- | --- |
| C#Cc1cccc(Nc2ncnc3cc(OCCOC)c(OCCOC)cc23)c1 [erlotinib, Erlotinib] | did not show a significant difference | ~ 10% | No significant differences | significantly higher | higher | significantly increased | significantly lower; also recorded: significantly reduced |  |  |  |
| C#Cc1cccc(Nc2ncnc3cc(OCCOC)c(OCCO)cc23)c1 [OSI-420] | did not show a significant difference |  |  | significantly higher |  | significantly increased | significantly lower; also recorded: significantly reduced | 10-20% | No significant differences | 6.6 % ± 0.7% |
